Three molecules from patent publication US6936591B2, “Amorphous 9-deoxo-9a-aza-9a-methyl-9a-homoerythromycin A, process for preparing the same, and uses thereof” (Pliva Pharmaceutical Industry, Incorporated, priority 2002, dated 2005) can be followed below.

Type in all cases: physicochemical
Series [1] in a line: Dissolution profiles, USP Method 2, dissolved content by HPLC. The method, then:
For comparison, new pseudopolymorph Ic as prepared by the procedure in Example 3 above and new amorphous 9-deoxo-9a-aza-9a-methyl-9a-homoerythromycin A as prepared by the procedure in Example 11 above were used. The comparative dissolution profiles were determined by USP Method 2, PharmaTest Dissolution Tester, PTW SII; and the content of dissolved 9-deoxo-9a-aza-9a-methyl-9a-homoerythromycin A was measured by HPLC. The data thus obtained are set forth in Table 2 below, and plotted in FIGS. 8 (pH 3) and 9 (pH 6).

Series [2] can be described thus: Intrinsic dissolution rate (IDR), Intrinsic Dissolution Tester, Van Kel Type. The following applies: medium of pH 6 and 37° C. The method, then:
The intrinsic dissolution rates (IDR) for the new amorphous 9-deoxo-9a-aza-9a-methyl-9a-homoerythromycin A prepared according to the procedure of Example 11, and the commercial 9-deoxo-9a-aza-9a-methyl-9a-homoerythromycin A dihydrate, in medium of pH 6 and 37° C., were determined by Intrinsic Dissolution Tester, Van Kel Type. The IDR for the new amorphous 9-deoxo-9a-aza-9a-methyl-9a-homoerythromycin A was about […], about […] higher than the IDR of the prior art, i.e. 9-deoxo-9a-aza-9a-methyl-9a-homoerythromycin A dihydrate (about 1.8 mg min^−1cm^−2).

The nature of series [3]: Hygroscopicity and stability at normal storage conditions.

Regarding `CC[C@H]1OC(=O)[C@H](C)[C@@H](O[C@H]2C[C@@](C)(OC)[C@@H](O)[C@H](C)O2)C(C)[C@@H](O[C@@H]2O[C@H](C)C[C@H](N(C)C)[C@H]2O)[C@](C)(O)C[C@@H](C)CN(C)[C@H](C)[C@@H](O)[C@]1(C)O` (stereo partly drawn) [9-deoxo-9a-aza-9a-methyl-9a-homoerythromycin A dihydrate, reference compound], the Percent dissolved in series [1] (pH 3, 37° C., 5 minutes, dihydrate) is 3.9%; in series [1] (pH 3, 37° C., 10 minutes, dihydrate) it was 8.1%; in series [1] (pH 3, 37° C., 20 minutes, dihydrate), 14.6%; in series [1] (pH 3, 37° C., 45 minutes, dihydrate) it was 26.7%; in series [1] (pH 3, 37° C., 60 minutes, dihydrate) it was 33.3%; in series [1] (pH 6, 37° C., 5 minutes, dihydrate) it was 14.5%. The Percent dissolved in series [1] (pH 6, 37° C., 10 minutes, dihydrate) turned out to be 27.3%; in series [1] (pH 6, 37° C., 20 minutes, dihydrate), 44.2%; in series [1] (pH 6, 37° C., 45 minutes, dihydrate), 69.1%; in series [1] (pH 6, 37° C., 60 minutes, dihydrate), 73.7%. For the same molecule, the “Intrinsic dissolution rate (IDR)” value in series [2] (dihydrate) is “about 1.8 mg min^−1 cm^−2”.

Consider `CC[C@H]1OC(=O)[C@H](C)[C@@H](O[C@H]2C[C@@](C)(OC)[C@@H](O)[C@H](C)O2)C(C)[C@@H](O[C@@H]2O[C@H](C)C[C@H](N(C)C)[C@H]2O)[C@](C)(O)C[C@@H](C)CN(C)[C@H](C)[C@@H](O)[C@]1(C)O` (stereo partly drawn) [Example 11, 9-deoxo-9a-aza-9a-methyl-9a-homoerythromycin A], for which, in series [1] (compared with the dihydrate), the “Specific dissolution rate as compared with the dihydrate” value was “significantly better”. The Percent dissolved in series [1] (pH 3, 37° C., 5 minutes) was 14.3%; in series [1] (pH 3, 37° C., 10 minutes), 26.5%; in series [1] (pH 3, 37° C., 20 minutes), 50.5%; in series [1] (pH 3, 37° C., 45 minutes), 85.8%; in series [1] (pH 3, 37° C., 60 minutes) it was 89.5%; in series [1] (pH 6, 37° C., 5 minutes), 78.5%. Further, the Percent dissolved in series [1] (pH 6, 37° C., 10 minutes) is recorded as 97.5%; in series [1] (pH 6, 37° C., 20 minutes) it was 98.7%; in series [1] (pH 6, 37° C., 45 minutes), 96.7%; in series [1] (pH 6, 37° C., 60 minutes) it was 95.1%. Also, the “Intrinsic dissolution rate (IDR)” value in series [2] is listed as “about 2.79 mg min^−1 cm^−2”. For the same molecule, the “IDR higher than the IDR of the dihydrate” value in series [2] (relative to commercial dihydrate) is given as “about 40%”. The Hygroscopicity entry in series [3] is “not hygroscopic”. Also, the “Stability (chemical stability and stability of the "crystal" form)” value in series [3] (normal storage conditions) is on record as “stable”.

For the molecule `CC[C@H]1OC(=O)[C@H](C)[C@@H](O[C@H]2C[C@@](C)(OC)[C@@H](O)[C@H](C)O2)[C@H](C)[C@@H](O[C@@H]2O[C@H](C)C[C@H](N(C)C)[C@H]2O)[C@](C)(O)C[C@@H](C)CN(C)[C@H](C)[C@@H](O)[C@]1(C)O` [Ic, 9-deoxo-9a-aza-9a-methyl-9a-homoerythromycin A], the Percent dissolved turned out to be 12.3% in series [1] (pH 3, 37° C., 5 minutes); 29.4% in series [1] (pH 3, 37° C., 10 minutes); 52.5% in series [1] (pH 3, 37° C., 20 minutes); 92.2% in series [1] (pH 3, 37° C., 45 minutes); 93.2% in series [1] (pH 3, 37° C., 60 minutes); 74.0% in series [1] (pH 6, 37° C., 5 minutes). The Percent dissolved in series [1] (pH 6, 37° C., 10 minutes) amounted to 98.8%; in series [1] (pH 6, 37° C., 20 minutes), 98.6%; in series [1] (pH 6, 37° C., 45 minutes) it was 95.3%; in series [1] (pH 6, 37° C., 60 minutes), 94.6%.
